Structures can show the parent of a compound that is named as a salt. Where two headings read alike, the source gives them in different places.
Assays:
PDK1 = PDK1 (Homo sapiens (Human), UniProt O15530); assay: PDK1 kinase assay (coupled PDK1/AKT/FAM-crosstide assay, IMAP fluorescence polarization); format: biochemical
Method in brief: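 PDK1 activity is measured indirectly through activation of a PIFtide-fused AKT2 construct that phosphorylates FAM-crosstide (100 nM). The reaction uses 0.75 nM PDK1, 40 μM ATP, 30 min, 25° C, with IMAP polarization detection.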

[1] = test system: phospho-akt (Thr308) in PC-3 cells; assay: Inhibition of phospho-akt (Thr308) in PC-3 cells, MSD phospho-akt 308 ELISA kit; format: cell-based; details: 2 hours, no serum, read-out: EC50
Method in brief: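 Read-out is MSD electrochemiluminescence of Akt phosphorylated at Thr308 in lysates of PC-3 cells treated 2 h with compound in serum-free medium. Wortmannin at 5 μM defined the low control and DMSO the high control.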

[2] = Homo sapiens, inhibition of P308 Akt in PC-3 cells using MSD
[3] = inhibition of phospo-PDK1 in vitro
[4] = Homo sapiens, inhibition of P308 Akt in PC-3 cells, MSD

Sequence of PDK1 (O15530 51-359): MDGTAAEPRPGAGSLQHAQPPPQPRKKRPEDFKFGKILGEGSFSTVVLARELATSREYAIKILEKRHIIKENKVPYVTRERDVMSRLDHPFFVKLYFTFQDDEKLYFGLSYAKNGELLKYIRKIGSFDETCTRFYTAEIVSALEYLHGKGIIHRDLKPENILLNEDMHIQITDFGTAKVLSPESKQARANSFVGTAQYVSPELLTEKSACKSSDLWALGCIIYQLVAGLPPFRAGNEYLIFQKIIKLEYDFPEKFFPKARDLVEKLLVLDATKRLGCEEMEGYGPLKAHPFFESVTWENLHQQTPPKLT

| IC50 (PDK1; inhibition of PDK1 in vitro) [nM] | EC50 [1, 2] [nM] | IC50 (PDK1; [3]) [nM] | EC50 [1, 4] [nM] | SMILES | also measured |
| --- | --- | --- | --- | --- | --- |
| < 100 | < 1000 |  |  | Cc1n[nH]c2ncc(-c3ccc(CNc4ncc(C#N)nc4C(=O)N[C@@H](C)c4ccc(F)c(F)c4)cc3)cc12 [Example 410, (S)-6-cyano-N-(1-(3,4-difluorophenyl)ethyl)-3-(4-(3-methyl-1H-pyrazolo [3,4-b]pyridin-5-yl)benzylamino)pyrazine-2-carboxamide] |  |
|  |  | < 100 | < 1000 | O=C1Nc2cc(OCCNc3ncccc3C(=O)NCc3ccc(F)c(F)c3)ccc2/C1=C/c1cnc[nH]1 [Example 22, (Z)-2-(2-(3-((1H-imidazol-5-yl)methylene)-2-oxoindolin-6-yloxy)ethylamino)-N-(3,4-difluorobenzyl)nicotinamide] |  |
| < 100 | 1000 to 10000 |  |  | N#Cc1cccc(NC(=O)c2cc(C(F)(F)F)cnc2NCc2ccc(-c3cnc4[nH]nc(N)c4c3)cc2)c1 [Example 439, 2-(4-(3-amino-1H-pyrazolo[3,4-b]pyridin-5-yl)benzylamino)-N-(3-cyanophenyl)-5-(trifluoromethyl) nicotinamide] |  |
| 100 to 1000 | > 10000 |  |  | N#Cc1cnc2c(c1)c(NCc1ccc(F)c(F)c1)nn2Cc1ccc(-c2cnc(N)cn2)cc1 [Example 259, 1-(4-(5-aminopyrazin-2-yl)benzyl)-3-(3,4-difluorobenzylamino)-1H-pyrazolo[3,4-b]pyridine-5-carbonitrile] |  |
| > 5000 | > 10000 |  |  | C[C@H](NC(=O)c1cc(C#N)cnc1NCc1ccc(-c2cnc(NCCN(C)C)cn2)cc1)c1ccc(F)cc1 [Example 226, 5-Cyano-2-{4-[5-(2-dimethylamino-ethylamino)-pyrazin-2-yl]-benzylamino}-N-[(S)-1-(4-fluoro-phenyl)-ethyl]-nicotinamide] |  |
| < 100 | < 1000 |  |  | Cn1cnc2cnc3ccc(-c4cnc(CNc5ncccc5C(=O)NCc5ccc(F)c(F)c5)s4)cc3c21 [Example 384, N-(3,4-Difluoro-benzyl)-2-{[5-(1-methyl-1H-imidazo [4,5-c]quinolin-8-yl)-thiazol-2-ylmethyl]-amino}-nicotinamide] |  |
| 1000 to 5000 | > 10000 |  |  | C[C@H](NC(=O)c1cc(C#N)cnc1NCC1CCN(c2cnc(N)cn2)CC1)c1ccc(F)cc1 [Example 61, (S)-2-(((1-(5-aminopyrazin-2-yl)piperidin-4-yl)methyl)amino)-5-cyano-N-(1-(4-fluorophenyl)ethyl)nicotinamide] |  |
|  |  | 100 to 1000 |  | O=C(NCc1ccc(F)c(F)c1)c1cccnc1NCc1ccc(-c2cnc3[nH]ccc3c2)s1 [Example 2.31, 2-(((5-(1H-pyrrolo[2,3-b]pyridin-5-yl)thiophen-2-yl)methyl)amino)-N-(3,4-difluorobenzyl) nicotinamide] | EC50 ([1]; inhibition of P308 Akt in PC-3 cells, MSD): 1000 to 10000 nM |
| < 100 | < 1000 |  |  | C[C@H](NC(=O)c1cc(C(F)(F)F)cnc1NCc1ccc(-c2cnc(N)cn2)cc1)c1ccc(F)cc1 [Example 379, (S)-2-(4-(5-aminopyrazin-2-yl)benzylamino)-N-(1-(4-fluorophenyl)ethyl)-5-(trifluoromethyl)nicotinamide] |  |
| < 100 | < 1000 |  |  | C[C@H](NC(=O)c1cc(C#N)cnc1NCc1ccc(-c2cnc3[nH]ncc3c2)cc1)c1ccc(F)c(F)c1 [Example 395, 5-Cyano-N-[(S)-1-(3,4-difluoro-phenyl)-ethyl]-2-[4-(1H-pyrazolo[3,4-b]pyridin-5-yl)-benzylamino]-nicotinamide] |  |
| < 100 | > 10000 |  |  | Cc1cnc2c3cc(-c4ccc(CNc5ncccc5C(=O)N[C@@H](C)c5ccc(F)c(F)c5)s4)ccc3ncn12 [Example 49, (S)-N-(1-(3,4-difluorophenyl)ethyl)-2-((5-(3-methyl-imidazo[1,2-c]quinazolin-9-yl)thiophen-2-ylmethyl)amino) nicotinamide] |  |
|  |  | 1000 to 5000 | > 10000 | C[C@H](NC(=O)c1cccnc1NCc1ccc(-c2ccc3ncc(N(C)C)nc3c2)s1)c1ccc(F)c(F)c1 [Example 4.27, (S)-N-(1-(3,4-difluoro-phenyl)ethyl)-2-(((5-(3-(dimethylamino)quinoxalin-6-yl)thiophen-2-yl)methyl)amino)nicotinamide] |  |
| > 5000 | 1000 to 10000 |  |  | CNc1ncc2cc(O[C@H](C)CNc3ncc(C#N)cc3C(=O)N[C@@H](C)c3ccc(F)cc3)ccc2n1 [Example 251, 5-cyano-N-((S)-1-(4-fluorophenyl)ethyl)-2-((R)-2-(2-(methylamino)quinazolin-6-yloxy)propylamino)nicotinamide] |  |
|  |  | 1000 to 5000 | 1000 to 10000 | Nc1ncnc2ccc(-c3ccc(CNc4ncccc4C(=O)NCc4cncnc4)s3)cc12 [Example 3.57, 2-({[5-(4-aminoquinazolin-6-yl)thiophen-2-yl]methyl}amino)-N-(pyrimidin-5-ylmethyl) pyridine-3-carboxamide (TFA salt)] |  |
| < 100 | < 1000 |  |  | C[C@H](NC(=O)c1cc(C#N)cnc1NCc1ccc(-c2cnc(N)c(CCCCN)n2)cc1)c1ccc(F)cc1 [Example 71, 2-{4-[5-Amino-6-(4-amino-butyl)-pyrazin-2-yl]-benzyl-amino}-5-cyano-N-[(S)-1-(4-fluoro-phenyl)-ethyl]-nicotinamide] |  |
| < 100 | 1000 to 10000 |  |  | Nc1n[nH]c2ncc(-c3ccc(CNc4ncc(C(F)(F)F)cc4C(=O)NCC4CCCC4)cc3)cc12 [Example 264, 2-(4-(3-amino-1H-pyrazolo [3,4-b]pyridin-5-yl)benzylamino)-N-(cyclopentylmethyl)-5-(trifluoromethyl) nicotinamide] |  |
|  |  | < 100 | 1000 to 10000 | CNc1ncnc2ccc(-c3ccc(CNc4ncccc4C(=O)NCc4ccc(F)c(F)c4)s3)cc12 [Example 4.24, N-(3,4-difluorobenzyl)-2-(((5-(4-(methylamino)quinazolin-6-yl)thiophen-2-yl)methyl)amino)nicotinamide] |  |
| < 100 | 1000 to 10000 |  |  | Nc1n[nH]c2ncc(-c3ccc(CNc4ncc(C(F)(F)F)cc4C(=O)NCCC4CC4)cc3)cc12 [Example 269, 2-(4-(3-amino-1H-pyrazolo [3,4-b]pyridin-5-yl)benzylamino)-N-(2-cyclopropylethyl)-5-(trifluoromethyl) nicotinamide] |  |
| < 100 | < 1000 |  |  | C[C@H](NC(=O)c1cc(C#N)cnc1NCc1ccc(-c2cnc(N)c(OC(F)F)c2)cc1)c1ccc(F)cc1 [Example 134, (S)-2-(4-(6-amino-5-(difluoromethoxy)pyridin-3-yl)benzylamino)-5-cyano-N-(1-(4-fluorophenyl)ethyl)nicotinamide] |  |
|  |  | < 100 | < 1000 | C[C@H](NC(=O)c1cc(C#N)cnc1NC/C=C/c1ccc2c(c1)NC(=O)/C2=C\c1cnc[nH]1)c1ccc(F)cc1 [Example 15.4, 2-((E)-3-((Z)-3-((1H-imidazol-5-yl)methylene)-2-oxoindolin-6-yl)allylamino)-5-cyano-N-((S)-1-(4-fluorophenyl)ethyl)nicotinamide] |  |
|  |  | 100 to 1000 |  | C[C@H](NC(=O)c1cccnc1NCc1ccc(-c2cc3c(N)ncnc3cn2)s1)c1ccc(F)cc1 [Example 2.13.1, (S)-2-(((5-(4-aminopyrido[3,4-d]pyrimidin-6-yl)thiophen-2-yl)methyl)amino)-N-(1-(4-fluoro-phenyl)ethyl)nicotinamide] | EC50 ([1]; Homo sapiens, PC-3, 2 h, inhibition of P308 Akt in PC-3 cells, MSD): 1000 to 10000 nM |
|  |  | < 100 | < 1000 | C[C@H](NC(=O)c1cc(C(F)(F)F)cnc1NCc1ccc(-c2ccc3ncc4ncn(C)c4c3c2)s1)c1ccc(F)c(F)c1 [Example 2.27, (S)-5-trifluoromethyl-N-(1-(3,4-difluorophenyl)ethyl)-2-(((5-(1-methyl-1H-imidazo[4,5-c]quinolin-8-yl)thiophen-2-yl)methyl)amino)nicotinamide] |  |
|  |  | 100 to 1000 | > 10000 | CCOc1ccnc(NCc2ccc(-c3ccc4ncnc(N)c4c3)s2)c1C(=O)NCc1ccc(F)c(F)c1 [Ex. 7.5, 2-({[5-(4-aminoquinazolin-6-yl)thiophen-2-yl]methyl}amino)-N-(3,4-difluorobenzyl)-4-ethoxypyridine-3-carboxamide] |  |
|  |  | < 100 | < 1000 | CS(=O)(=O)Nc1cnc(NCc2ccc(-c3ccc4ncnc(N)c4c3)s2)c(C(=O)NCc2ccc(F)c(F)c2)c1 [Ex. 8.6.1, 2-({[5-(4-aminoquinazolin-6-yl)thiophen-2-yl]methyl}amino)-N-(3,4-difluorobenzyl)-5-[(methylsulfonyl)amino]pyridine-3-carboxamide] |  |
| < 100 | < 1000 |  |  | C[C@@H](Nc1ncc(C(F)(F)F)cc1C(=O)Nc1ccc(F)cc1)c1ccc(-c2cnc3[nH]nc(N)c3c2)cc1 [Example 422, 2-{(R)-1-[4-(3-Amino-1H-pyrazolo[3,4-b]pyridin-5-yl)-phenyl]-ethylamino}-N-(4-fluoro-phenyl)-5-trifluoromethyl-nicotinamide] |  |
| 100 to 1000 |  |  |  | C[C@H](NC(=O)c1cccnc1NCc1ccc(-c2cn(C3CCC3)c3ncnc(N)c23)cc1)c1ccc(F)cc1 [Example 346, (S)-2-(4-(4-amino-7-cyclobutyl-7H-pyrrolo [2,3-d]pyrimidin-5-yl)benzylamino)-N-(1-(4-fluorophenyl)ethyl)nicotinamide] | EC50 ([1]; Homo sapiens, PC-3, 2 h, inhibition of P308 Akt in PC-3 cells using MSD): < 1000 nM |
